We go through 3 compounds from patent US20240381872A1, “SUBSTITUTED 2,3-DIHYDRO[1,3]THIAZOLO[4,5-B]PYRIDINES, SALTS THEREOF AND THEIR USE AS HERBICIDALLY ACTIVE SUBSTANCES” (BAYER AKTIENGESELLSCHAFT, priority 2021, published 2024).

Structures are written as SMILES.

Holding throughout (format): in vivo
Test [1] deals with Stellaria media (STEME). The experiment in a line: Herbicidal pre-emergence action, section A (Table A9). As to conditions: application rate 320 g/ha; for pest or weed control at 320 g/ha: Stellaria media, 504 h, read-out: pre-emergence activity against STEME in %. An outline of the steps: (§1)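 WP/EC formulations, aqueous, 0.5% additive, 600 l/ha → soil surface over seeds in sandy loam → greenhouse, optimum growth → visual % damage vs untreated at ca. 3 weeks.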

In test [2] the test system is Digitaria sanguinalis (DIGSA). The experiment in a line: Herbicidal pre-emergence action, section A (Table A12). The note with it: for pest or weed control at 1280 g/ha: Digitaria sanguinalis, 504 h, application rate 1280 g/ha, read-out: pre-emergence activity against DIGSA in %. The procedure, abridged: as §1
Test [3] deals with Kochia scoparia (KCHSC). In words: Herbicidal pre-emergence action, section A (Table A4). As to conditions: visual grading after ca. 3 weeks vs untreated controls. An outline of the steps:
as §1

Test [4] deals with Amaranthus retroflexus (AMARE). The experiment in a line: Herbicidal pre-emergence action, section A (Table A11). The procedure, abridged: as §1
Test [5] relates to Setaria viridis (SETVI). In words: Herbicidal pre-emergence action, section A (Table A8). An outline of the steps:
as §1

Test [6] concerns Echinochloa crus-galli (ECHCG). The experiment in a line: Herbicidal post-emergence action, section B (Table B3). The note with it: rated visually after about 3 weeks. The procedure: (§2) Seeds of mono- and dicotyledonous weed plants were placed in plastic pots in sandy loam soil (doubly sown with in each case one species of mono- or dicotyledonous weed plants per pot), covered with soil and cultivated in a greenhouse under controlled growth conditions. 2 to 3 weeks after sowing, the test plants were treated at the one-leaf stage. The compounds of the invention, formulated in the form of wettable powders (WP) or as emulsion concentrates (EC), were applied onto the green parts of the plants as aqueous suspension or emulsion with addition of 0.5% additive at a water application rate of 600 liters per hectare (converted). After the test plants had been kept in the greenhouse under optimum growth conditions for about 3 weeks, the activity of the preparations was rated visually in comparison to untreated controls. For example, 100% activity=the plants have died, 0% activity=like control plants.

The subject of test [7] is Veronica persica (VERPE). The experiment in a line: Herbicidal pre-emergence action, section A (Table A10). The note with it: for pest or weed control at 320 g/ha: Veronica persica, 504 h, application rate 320 g/ha, read-out: pre-emergence activity against VERPE in %. An outline of the steps:
as §1

Test [8] concerns Kochia scoparia (KCHSC). The experiment in a line: Herbicidal post-emergence action, section B (Table B4). The note with it: Bassia scoparia, post-emergence, 504 h; application rate 1280 g/ha; visual rating about 3 weeks after treatment vs untreated controls; read-out: post-emergence activity against KCHSC in %. An outline of the steps: (§3)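 Post-emergence greenhouse test: weeds sown in sandy loam, treated at one-leaf stage 2–3 weeks after sowing with WP or EC formulations sprayed as aqueous suspension/emulsion plus 0.5% additive at 600 L/ha. Activity rated visually versus untreated controls after about 3 weeks (100% = plants dead, 0% = like control).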

The test system of test [9] is Veronica persica (VERPE). The experiment in a line: Herbicidal post-emergence action, section B (Table B10). The note with it: Veronica persica, post-emergence, 504 h, visual rating about 3 weeks after treatment vs untreated controls, read-out: post-emergence activity against VERPE in %. An outline of the steps: as §3
Test [10] concerns Lolium rigidum (LOLRI). In words: Herbicidal pre-emergence action, section A (Table A5). As to conditions: visual grading after ca. 3 weeks vs untreated controls. An outline of the steps:
as §1

Test [11] has as its system Lolium rigidum (LOLRI). In words: Herbicidal post-emergence action, section B (Table B5). The note with it: application rate 1280 g/ha, visual rating about 3 weeks after treatment vs untreated controls; for pest or weed control at 1280 g/ha: Lolium rigidum, post-emergence, 504 h, read-out: post-emergence activity against LOLRI in %. The procedure:
as §2

For test [12], the system named is Poa annua (POAAN). In words: Herbicidal pre-emergence action, section A (Table A7). As to conditions: visual grading after ca. 3 weeks vs untreated controls. The procedure, abridged:
as §1

Test [13] has as its system Poa annua (POAAN). The experiment in a line: Herbicidal post-emergence action, section B (Table B7). As to conditions: Poa annua, post-emergence, 504 h, visual rating about 3 weeks after treatment vs untreated controls, read-out: post-emergence activity against POAAN in %. The procedure, abridged: as §3
Test [14] deals with Stellaria media (STEME). In words: Herbicidal post-emergence action, section B (Table B9). The note with it: visual rating about 3 weeks after treatment vs untreated controls; for pest or weed control at 1280 g/ha: Stellaria media, post-emergence, 504 h, application rate 1280 g/ha, read-out: post-emergence activity against STEME in %. The procedure, abridged:
as §3

The subject of test [15] is Echinochloa crus-galli (ECHCG). The experiment in a line: Herbicidal pre-emergence action, section A (Table A3). As to conditions: visual grading after ca. 3 weeks vs untreated controls. The procedure, abridged: as §1
The subject of test [16] is Matricaria inodora (MATIN). In words: Herbicidal pre-emergence action, section A (Table A6). The note with it: application rate 1280 g/ha, visual grading after ca. 3 weeks vs untreated controls; for pest or weed control at 1280 g/ha: Tripleurospermum inodorum, pre-emergence, 504 h, read-out: pre-emergence activity against MATIN in %. The procedure, abridged: as §1
In test [17] the test system is Amaranthus retroflexus (AMARE). The experiment in a line: Herbicidal post-emergence action, section B (Table B11). As to conditions: visual rating about 3 weeks after treatment vs untreated controls. The procedure, abridged: as §3
In test [18] the test system is Setaria viridis (SETVI). The experiment in a line: Herbicidal post-emergence action, section B (Table B8). As to conditions: Setaria viridis, post-emergence, 504 h; application rate 320 g/ha; visual rating about 3 weeks after treatment vs untreated controls; read-out: post-emergence activity against SETVI in %. The procedure:
as §2

For test [19], the system named is Digitaria sanguinalis (DIGSA). In words: Herbicidal post-emergence action, section B (Table B12). As to conditions: Digitaria sanguinalis, post-emergence, 504 h; application rate 1280 g/ha; visual rating about 3 weeks after treatment vs untreated controls; read-out: post-emergence activity against DIGSA in %. The method, then: as §2
For test [20], the system named is Abutilon theophrasti (ABUTH). In words: Herbicidal post-emergence action, section B (Table B1). The note with it: Abutilon theophrasti, 504 h, application rate 1280 g/ha, rated visually after about 3 weeks, read-out: post-emergence activity against ABUTH in %. The method, then: as §2
In test [21] the test system is Alopecurus myosuroides (ALOMY). In words: Herbicidal pre-emergence action, section A (Table A2). The note with it: application rate 1280 g/ha; visual grading after ca. 3 weeks vs untreated controls. An excerpt: Seeds of mono- and dicotyledonous weed plants were sown in plastic pots (double sowings with one species of mono- and one species of dicotyledonous weed plants per pot), in sandy loam, and covered with soil. The compounds according to the invention, formulated in the form of wettable powders (WP) or as emulsifiable concentrates (EC), were applied to the surface of the covering soil as aqueous suspension or emulsion, with the addition of 0.5% of an additive, at an application rate of 600 l of water per hectare (converted). Following treatment, the pots were placed in a greenhouse and kept under optimum growth conditions for the test plants. The visual grading of the damage to the test plants was carried out after ca. 3 weeks in comparison to untreated controls (herbicidal effect in percent (%): 100% effect=plants have died off, 0% effect=as control plants).

Take `Cc1cscc1-c1nc2c(cc1C)[S+]([O-])CN2` (centres unmarked) [Example I-023]: the pest or weed control at 320 g/ha in test [1], in [7] and in test [13] (application rate 320 g/ha) was 90% throughout. Also, the pest or weed control at 1280 g/ha in test [2] was determined as 100%; in test [3] (Bassia scoparia, pre-emergence, 504 h, application rate 1280 g/ha, read-out: pre-emergence activity against KCHSC in %), 90%; in [4] (Amaranthus retroflexus, 504 h, application rate 1280 g/ha, read-out: pre-emergence activity against AMARE in %), 90%; in [5] (Setaria viridis, 504 h, application rate 1280 g/ha, read-out: pre-emergence activity against SETVI in %), 100%; in test [6] (Echinochloa crus-galli, 504 h, application rate 1280 g/ha, read-out: post-emergence activity against ECHCG in %) it was 90%; in test [8] it was 90%. The pest or weed control at 1280 g/ha in test [9] (application rate 1280 g/ha) worked out at 90%; in [10] (Lolium rigidum, pre-emergence, 504 h, application rate 1280 g/ha, read-out: pre-emergence activity against LOLRI in %) it was 100%; in test [11], 90%; in test [12] (Poa annua, pre-emergence, 504 h, application rate 1280 g/ha, read-out: pre-emergence activity against POAAN in %), 100%; in test [14], 90%; in test [15] (Echinochloa crus-galli, pre-emergence, 504 h, application rate 1280 g/ha, read-out: pre-emergence activity against ECHCG in %) it was 100%. The pest or weed control at 1280 g/ha in [16] came out at 90%.

For the compound `Cc1cc2c(nc1-c1ccccc1Cl)N(S(C)(=O)=O)CS2` [Example I-142, 5-(2-chlorophenyl)-6-methyl-3-(methylsulfonyl)-2,3-dihydro[1,3]thiazolo[4,5-b]pyridine], the pest or weed control at 320 g/ha stood at 90% in test [1]; 90% in test [17] (Amaranthus retroflexus, post-emergence, 504 h, application rate 320 g/ha, read-out: post-emergence activity against AMARE in %); 90% in test [3] (Bassia scoparia, pre-emergence, 504 h, application rate 320 g/ha, read-out: pre-emergence activity against KCHSC in %); 90% in test [4] (Amaranthus retroflexus, 504 h, application rate 320 g/ha, read-out: pre-emergence activity against AMARE in %); 90% in test [18]; 100% in [5] (Setaria viridis, 504 h, application rate 320 g/ha, read-out: pre-emergence activity against SETVI in %). In addition, the pest or weed control at 320 g/ha in test [6] (Echinochloa crus-galli, 504 h, application rate 320 g/ha, read-out: post-emergence activity against ECHCG in %) worked out at 90%; in test [7] it was 90%; in test [9] (application rate 320 g/ha), 90%; in [10] (Lolium rigidum, pre-emergence, 504 h, application rate 320 g/ha, read-out: pre-emergence activity against LOLRI in %), 100%; in [12] (Poa annua, pre-emergence, 504 h, application rate 320 g/ha, read-out: pre-emergence activity against POAAN in %), 100%; in test [15] (Echinochloa crus-galli, pre-emergence, 504 h, application rate 320 g/ha, read-out: pre-emergence activity against ECHCG in %), 100%. Further, the pest or weed control at 1280 g/ha in test [2] was found to be 100%; in [19], 90%; in test [11], 90%; in test [13] (application rate 1280 g/ha), 90%; in test [14] it was 90%; in test [20] it was 90%. In [16], the pest or weed control at 1280 g/ha was found to be 90%.

Turning to `Cc1cc2c(nc1-c1cccc(F)c1F)N(C(=O)C13CCCC1C(Cl)=NO3)CS2` (centres unmarked) [Example I-156], the “pre-emergence activity against STEME in %” value in test [1] stood at 90%. Further, the “pre-emergence activity against ALOMY in %” value in [21] was determined as 90%. In test [2] (application rate 320 g/ha), the “pre-emergence activity against DIGSA in %” value amounted to 90%. The “post-emergence activity against AMARE in %” value in [17] (application rate 1280 g/ha) is 90%. Besides, the “pre-emergence activity against KCHSC in %” value in test [3] (application rate 320 g/ha) stood at 90%. Besides, the “pre-emergence activity against AMARE in %” value in test [4] (application rate 320 g/ha) was 90%. Further, in [5] (application rate 320 g/ha), the “pre-emergence activity against SETVI in %” value was 100%. Also, the “post-emergence activity against ECHCG in %” value in test [6] (application rate 1280 g/ha) stood at 90%. Moreover, in [7] (application rate 1280 g/ha), the “pre-emergence activity against VERPE in %” value is on record as 90%. For the same compound, the “pre-emergence activity against LOLRI in %” value in test [10] (application rate 320 g/ha) is reported as 90%. Moreover, the “post-emergence activity against LOLRI in %” value in test [11] is reported as 90%. Moreover, in [12] (application rate 320 g/ha), the “pre-emergence activity against POAAN in %” value came out at 100%. The “post-emergence activity against STEME in %” value in test [14] (application rate 320 g/ha) stood at 90%. For the same compound, the “pre-emergence activity against ECHCG in %” value in test [15] (application rate 320 g/ha) is reported as 90%. The “pre-emergence activity against MATIN in %” value in [16] was 90%.
